Reference: patent US20250108001A1, “TOPICAL OCULAR ADMINISTRATION OF AMBROXOL FOR OCULAR PAIN” (NeuVision Development LLC, priority 2022, published 2025)

Legend:
eyes of rats = experiment: Corneal sensation by Cochet-Bonnet esthesiometer after one topical drop in rats; settings: rat eye; for minimum total corneal sensation preserved: at maximal effect (5-15 minutes), tactile sensation
rat NOP models = experiment: Rat eye-wipe assay, Epi-off ocular pain model, 2M NaCl challenge; assay type: in vivo
From the text: With minor modification of established rat NOP models, ocular pain was created by removing corneal epithelium (Epi-off) under general anesthesia. 2M NaCl saline (in contrast to 5M NaCl used in previous studies) was used to trigger peripheral neuronal excitement in response to hyperosmolarity while minimizing the potential inherent irritancy to the cornea from 5M NaCl. Then, one hour was given to each rat to allow complete recovery from anesthesia before proceeding to subsequent study steps. […] Due to its short duration of action, a proparacaine group was not included in this study (FIG. 2). The rat eye-wipe assay is an established animal behavioral and neurophysiological tool for the assessment of corneal sensitivity to noxious stimuli (Price T J, et al., Br. J. Pharmacol.). Increased corneal sensitivity was shown in male rats following lacrimal gland excision which correlates with eye wiping behaviors in response to hypertonic saline (5M NaCl) (Meng I D, et al., Invest. Ophthalmol. Vis. Sci. 2015).

Nav1.8 nociceptor = Nav1.8 nociceptor (Homo sapiens, UniProt Q9Y5Y9); settings: versus lidocaine; cited from earlier work
Nav1.8 nociceptor, sequence (Q9Y5Y9 whole entry): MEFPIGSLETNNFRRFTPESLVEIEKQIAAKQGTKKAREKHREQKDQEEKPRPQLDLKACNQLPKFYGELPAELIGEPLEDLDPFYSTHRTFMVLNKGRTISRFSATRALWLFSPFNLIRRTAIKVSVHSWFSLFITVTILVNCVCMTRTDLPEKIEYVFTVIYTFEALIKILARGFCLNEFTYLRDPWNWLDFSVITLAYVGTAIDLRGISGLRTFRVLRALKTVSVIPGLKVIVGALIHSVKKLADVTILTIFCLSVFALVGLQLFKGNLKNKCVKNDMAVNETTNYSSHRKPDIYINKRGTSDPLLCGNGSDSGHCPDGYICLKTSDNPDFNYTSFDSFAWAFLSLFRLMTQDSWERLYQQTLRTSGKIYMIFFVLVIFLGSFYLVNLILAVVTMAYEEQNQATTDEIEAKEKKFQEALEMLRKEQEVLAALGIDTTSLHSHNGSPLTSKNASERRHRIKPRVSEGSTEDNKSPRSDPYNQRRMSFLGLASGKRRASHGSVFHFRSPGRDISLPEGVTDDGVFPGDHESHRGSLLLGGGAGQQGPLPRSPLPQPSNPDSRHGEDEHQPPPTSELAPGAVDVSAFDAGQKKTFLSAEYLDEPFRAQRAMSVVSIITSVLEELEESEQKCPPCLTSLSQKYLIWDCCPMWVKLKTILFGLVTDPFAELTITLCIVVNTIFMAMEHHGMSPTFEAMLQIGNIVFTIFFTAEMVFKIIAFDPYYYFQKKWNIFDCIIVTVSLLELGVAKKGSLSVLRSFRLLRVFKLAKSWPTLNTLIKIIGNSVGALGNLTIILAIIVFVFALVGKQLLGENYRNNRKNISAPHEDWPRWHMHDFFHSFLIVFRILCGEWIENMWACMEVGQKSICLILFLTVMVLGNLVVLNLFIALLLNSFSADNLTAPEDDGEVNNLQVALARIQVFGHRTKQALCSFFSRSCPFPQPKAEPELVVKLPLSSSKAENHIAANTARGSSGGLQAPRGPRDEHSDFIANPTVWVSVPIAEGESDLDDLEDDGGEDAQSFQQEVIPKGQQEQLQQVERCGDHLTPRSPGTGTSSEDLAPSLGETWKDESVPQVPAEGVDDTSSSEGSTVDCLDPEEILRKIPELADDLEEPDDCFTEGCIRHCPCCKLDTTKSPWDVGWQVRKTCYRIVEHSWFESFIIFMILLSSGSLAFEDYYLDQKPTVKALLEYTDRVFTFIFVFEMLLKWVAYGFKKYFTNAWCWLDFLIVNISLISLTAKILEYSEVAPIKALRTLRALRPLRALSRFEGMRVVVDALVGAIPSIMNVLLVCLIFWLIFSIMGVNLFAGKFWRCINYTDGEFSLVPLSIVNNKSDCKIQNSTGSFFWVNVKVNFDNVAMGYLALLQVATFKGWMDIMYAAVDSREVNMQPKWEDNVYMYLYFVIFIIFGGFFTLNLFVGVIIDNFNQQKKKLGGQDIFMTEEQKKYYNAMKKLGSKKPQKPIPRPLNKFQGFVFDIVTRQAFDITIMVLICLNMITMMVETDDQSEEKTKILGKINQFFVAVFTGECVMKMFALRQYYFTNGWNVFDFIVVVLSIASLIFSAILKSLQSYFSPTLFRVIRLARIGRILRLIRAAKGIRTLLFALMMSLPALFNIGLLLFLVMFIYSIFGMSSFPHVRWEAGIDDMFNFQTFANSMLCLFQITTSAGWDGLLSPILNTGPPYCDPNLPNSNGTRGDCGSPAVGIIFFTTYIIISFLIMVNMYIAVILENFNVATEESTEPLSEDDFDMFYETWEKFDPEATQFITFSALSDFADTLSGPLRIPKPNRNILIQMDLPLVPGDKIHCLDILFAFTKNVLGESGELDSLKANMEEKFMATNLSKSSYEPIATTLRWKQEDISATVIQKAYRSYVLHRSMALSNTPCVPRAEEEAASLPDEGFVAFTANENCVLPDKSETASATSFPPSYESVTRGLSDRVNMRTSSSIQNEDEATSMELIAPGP

Nav1.7 nociceptor = Nav1.7 nociceptor (Homo sapiens, UniProt Q15858); settings: versus lidocaine; cited from earlier work
Nav1.7 nociceptor, sequence (Q15858 whole entry): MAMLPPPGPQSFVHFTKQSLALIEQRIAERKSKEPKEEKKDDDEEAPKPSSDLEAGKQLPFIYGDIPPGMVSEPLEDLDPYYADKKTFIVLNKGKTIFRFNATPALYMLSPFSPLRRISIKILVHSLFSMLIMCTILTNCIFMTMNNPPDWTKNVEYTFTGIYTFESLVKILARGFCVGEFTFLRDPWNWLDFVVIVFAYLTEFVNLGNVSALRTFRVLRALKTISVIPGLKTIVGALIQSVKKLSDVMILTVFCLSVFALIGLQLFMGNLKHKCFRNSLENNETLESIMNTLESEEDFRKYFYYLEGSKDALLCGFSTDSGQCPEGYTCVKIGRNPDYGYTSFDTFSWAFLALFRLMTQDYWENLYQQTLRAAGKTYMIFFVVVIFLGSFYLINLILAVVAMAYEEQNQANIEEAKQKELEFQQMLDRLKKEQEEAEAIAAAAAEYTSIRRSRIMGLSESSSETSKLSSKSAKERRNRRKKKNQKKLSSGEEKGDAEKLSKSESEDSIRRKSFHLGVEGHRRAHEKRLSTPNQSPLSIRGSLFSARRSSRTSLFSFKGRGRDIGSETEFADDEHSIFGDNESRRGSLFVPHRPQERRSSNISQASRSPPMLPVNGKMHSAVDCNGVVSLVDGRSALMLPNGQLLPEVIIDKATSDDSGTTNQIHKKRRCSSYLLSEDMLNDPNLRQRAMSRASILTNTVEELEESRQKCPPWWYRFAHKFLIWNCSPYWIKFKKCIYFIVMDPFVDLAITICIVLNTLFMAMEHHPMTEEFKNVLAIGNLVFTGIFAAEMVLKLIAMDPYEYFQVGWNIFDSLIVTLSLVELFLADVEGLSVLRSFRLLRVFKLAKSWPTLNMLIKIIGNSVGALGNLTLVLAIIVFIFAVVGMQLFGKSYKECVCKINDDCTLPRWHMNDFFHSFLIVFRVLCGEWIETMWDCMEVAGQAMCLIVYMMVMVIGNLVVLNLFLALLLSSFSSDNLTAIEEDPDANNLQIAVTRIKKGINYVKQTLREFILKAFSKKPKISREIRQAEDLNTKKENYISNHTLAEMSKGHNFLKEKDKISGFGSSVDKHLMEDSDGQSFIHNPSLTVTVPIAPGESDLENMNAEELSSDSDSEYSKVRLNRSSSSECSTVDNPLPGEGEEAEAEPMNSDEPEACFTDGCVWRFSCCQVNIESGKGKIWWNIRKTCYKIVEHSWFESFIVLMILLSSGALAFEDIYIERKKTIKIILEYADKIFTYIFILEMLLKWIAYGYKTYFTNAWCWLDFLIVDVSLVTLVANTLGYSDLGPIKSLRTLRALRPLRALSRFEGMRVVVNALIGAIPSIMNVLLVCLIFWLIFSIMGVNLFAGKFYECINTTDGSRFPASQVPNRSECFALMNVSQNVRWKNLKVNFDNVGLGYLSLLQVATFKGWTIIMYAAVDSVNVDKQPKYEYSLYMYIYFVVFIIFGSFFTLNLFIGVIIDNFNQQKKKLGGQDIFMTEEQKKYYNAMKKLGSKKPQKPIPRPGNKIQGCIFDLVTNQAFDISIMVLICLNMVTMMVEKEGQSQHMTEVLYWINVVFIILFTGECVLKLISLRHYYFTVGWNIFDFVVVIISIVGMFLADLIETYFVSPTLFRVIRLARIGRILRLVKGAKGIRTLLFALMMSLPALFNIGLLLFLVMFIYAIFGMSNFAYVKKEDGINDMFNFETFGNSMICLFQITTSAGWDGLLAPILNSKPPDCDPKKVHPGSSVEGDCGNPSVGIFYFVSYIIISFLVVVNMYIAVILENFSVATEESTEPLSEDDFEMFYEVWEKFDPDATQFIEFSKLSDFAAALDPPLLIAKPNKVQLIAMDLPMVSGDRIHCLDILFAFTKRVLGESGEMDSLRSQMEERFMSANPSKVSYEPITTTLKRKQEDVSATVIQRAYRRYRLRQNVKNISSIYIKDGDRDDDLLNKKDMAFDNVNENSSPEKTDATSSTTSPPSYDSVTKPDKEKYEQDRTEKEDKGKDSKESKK

cornea = settings: topical 0.1%, humans; cited from earlier work
[1] = 0.3% and 0.5% ambroxol HCl solutions
[2] = single drop 0.5% ambroxol, Epi-off rats, 2M NaCl

## Nc1c(Br)cc(Br)cc1CN[C@H]1CC[C@H](O)CC1 [ambroxol, trans-4-(2-Amino-3,5-dibrombenzylamino)-cyclohexanol]
Eyes of rats; 0.3% ambroxol HCl solution
  minimum total corneal sensation preserved: ≥ 15%
Eyes of rats; [1]
  duration of drug action on corneal sensation: about 4 hours
  time of maximal effect on corneal sensation: 5 to 15 min
Eyes of rats; 0.5% ambroxol HCl solution
  minimum total corneal sensation preserved: ≥ 15%
Rat NOP models; 0.5% ambroxol-containing formulation, after administration
  time of maximal effect in eye-wipe assay: up to 30 min
Rat NOP models; [2]
  duration of reduction in eye wiping count/min: at least 4 hours
  sensitivity to hyperosmolarity at the ocular surface: obviously preserved
Rat NOP models; single drop 0.5% ambroxol, Epi-off rats, versus carrier buffer control
  eye wiping count/min in response to 2M NaCl: significant reduction
Nav1.8 nociceptor
  potency in binding the Nav1.8 nociceptor relative to lidocaine: 40 times
  potency of Nav1.8 block relative to lidocaine: approximately 40 times
Nav1.7 nociceptor
  binding affinity for the Nav1.7 nociceptor relative to lidocaine: same level

## O=C(O)Cc1ccccc1Nc1c(Cl)cccc1Cl [diclofenac]
cornea
  cornea anesthetic effect: does not have clinically significant cornea anesthetic effect

## CCCOc1ccc(C(=O)OCCN(CC)CC)cc1N [proparacaine]
Eyes of rats; 0.5% proparacaine
  corneal sensor network block (FIG. 1): completely blocked
Rat NOP models; 0.5% proparacaine HCl, at its maximal effect (5 min), data not shown
  change in eye wiping counts before (Epi-on) and after surgery (Epi-off): no significant change
